Experimental data as given in patent publication US4701325A, “Injectable aqueous solution containing hydrogensulfite and/or sulfite and anticancerous benzodiazepine compound” (priority 1983, dated 1987).
Where a name gives a salt, the structure may show the parent alone.

How the values were obtained:
[1] = Acute toxicity (LD50) in ddY strain mice; type: in vivo; conditions: mouse, in vivo, iv, male ddY mice 18-20 g; combination with 10 times amount of NaHSO3
Procedure: (§1) The materials were administered to ddY strain mice (male, 18-20 g) intravenously to determine the LD50 (mg/Kg). […] Incidentally, NaHSO3 or Na2 SO 3 itself is a substance prescribed in Japanese Parmacopoeia and its safety has been established already.

[2] = Stability of compound B in aqueous solution of NaHSO3 or Na2SO3 by HPLC; type: physicochemical; conditions: 3 hours at room temperature, 0.2 mg/ml compound B, Sample: with 2.0 mg/ml NaHSO3 or Na2SO3, read-out: Ratio of remaining compound B
Procedure: It was confirmed that the stability of the compound B was not affected when an aqueous solution of NaHSO3 or Na2 SO3 was used as the dissolving medium of the compound B. In a sample of 10 ml of an aqueous solution containing 0.2 mg of the compound B and 2.0 mg of NaHSO3 or Na2 SO3 in 1 ml thereof, analysis was made on high-performance liquid chromatography just after dissolving the compound B and after standing the solution for 3 hours at room temperature, to examine the stability of the compound B. The results are as shown in Table 3.

p 388 leukemia = assay: Antitumor activity in p 388 leukemia cancer-bearing BDF1 mice; type: in vivo; conditions: i.v. once a day for 4 days, compound B 2 mg/Kg/day, NaHSO3 or Na2SO3 20 mg/kg/day
Procedure: By the comparative examintion of mean survival days of the mice, index of life saving was calculated by the equation below: [formula]

[3] = system: ear vein of white rabbits; assay: Tissue injury (edema ratio) after intravenous administration into the ear vein of rabbits for 5 days; type: in vivo; conditions: ear vein once a day for 5 days; measured 4 days after final administration; compound B 0.16 mg/Kg/day, NaHSO3 1.6 mg/Kg/day
Procedure: The same materials as those in Example 1 were used to determine the effect thereof administered to white rabbits (male, 2.0-2.3 kg) in groups of four in the ear vein once a day for consective 5 days. The material adminitered to the respective groups was (1) physiological saline, or (2) 0.16 mg of the compound B/Kg/day, (3) 0.16 mg of the compound B+1.6 mg of NaHSO3 /Kg/day or (4) 1.6 mg of NaHSO3 /Kg/day. The solution volumes to be administered were all fixed at 0.5 ml/Kg/day which contains respective material or materials in the above dosage.
For confirmation of the effect, the appearance was observed and the thickness at the administration site was measured 4 days after the final administration to serve as the index of tissue injury.
The edema ratio was determined according to the following equation. [formula]

ddY strain mice = assay: Acute toxicity (LD50) in ddY strain mice; type: in vivo; conditions: i.v., mice; 10 times amount of NaHSO3
Procedure: as §1

## Cc1ccc2c(c1O)NC(S(=O)O)C1CC(/C=C/C(N)=O)=CN1C2=O (stereo not shown) [Compound B, sodium salt of 5,10,11,11a-terahydro-9-hydroxy-8-methyl-5-oxo-11-sulfino-1H-pyrrolo[2,1-c][1,4]benzodiazepin-2-acrylamide]
[1]
  LD50: 6.23 mg/kg
[2]
  remaining at 3 h: 100%
P 388 leukemia; control 10 days
  Mean survival day: 18.0 days
P 388 leukemia; relative to physiological saline
  Index of life saving (%): 80%
[3]
  Edema ratio (%): 169.4%

## O=S([O-])O.[Na+] [NaHSO3, sodium hydrogensulfite, reference compound]
ddY strain mice
  Effect on acute toxicity of the compound B (in words): did not affect the acute toxicity of the compound B at all
[3]
  Edema ratio (%): 0.0%
